Results from patent publication US20250366474A1, “USE OF 4,5-DIMETHYLTHIAZOLE IN PROMOTING PLANT GROWTH” (HUAZHONG AGRICULTURAL UNIVERSITY, priority 2024, published 2025).

Tested on: hydroponic rice seedlings
Assay: Addition of 4,5-dimethylthiazole to hydroponic rice: growth, agronomic traits and nitrogen accumulation
Assay type: in vivo, indica (Heliangyou 332) and japonica (Nipponbare)
Details: for Dry Matter Mass of Rice, Root System / Dry Matter Mass of Rice, Shoot Part / Dry Matter Mass of Rice, Total / Leaf Area / Leaf Length / Leaf Width / Plant Height / Total Root Count: 25 days of cultivation
Experimental: Five addition concentrations of 4,5-dimethylthiazole (CAS No. 3581-91-7, see FIG. 1 for structural formula) were set, being 0, 5, 10, 20 and 50 mg/L, respectively, and a solvent was a rice nutrient solution. Two rice varieties were indica (Heliangyou 332) and japonica (Nipponbare), respectively. The rice was subjected to normal seed soaking, sowing and cultivation. When grown to one leaf and one tiller, rice seedlings were cultivated with mixed solution. Samples were collected after 25 days of cultivation. 30 plants were sampled from each treatment, where 15 plants were divided into two parts of stems and leaves, and root system, which were dried and weighed, and the other 15 plants were measured for agronomic traits.

**Q.** What does the source list for Cc1ncsc1C [4,5-dimethylthiazole]?
**A.** Dry Matter Mass of Rice, Root System (5 mg/L): 3.1 mg/plant; Dry Matter Mass of Rice, Shoot Part (5 mg/L): 17.0 mg/plant; Dry Matter Mass of Rice, Total (5 mg/L): 20.1 mg/plant; Leaf Area (5 mg/L): 3.39 cm^2; Leaf Length (5 mg/L): 10.73 cm; Leaf Width (5 mg/L): 0.38 cm; Plant Height (5 mg/L): 16.73 cm; Total Root Count (5 mg/L): 8.0 count/plant; Dry Matter Mass of Rice, Root System (10 mg/L): 4.0 mg/plant; Dry Matter Mass of Rice, Shoot Part (10 mg/L): 24.3 mg/plant; Dry Matter Mass of Rice, Total (10 mg/L): 28.3 mg/plant; Leaf Area (10 mg/L): 3.03 cm^2; Leaf Length (10 mg/L): 10.88 cm; Leaf Width (10 mg/L): 0.34 cm; Plant Height (10 mg/L): 16.97 cm; Total Root Count (10 mg/L): 8.0 count/plant; Dry Matter Mass of Rice, Root System (20 mg/L): 3.8 mg/plant; Dry Matter Mass of Rice, Shoot Part (20 mg/L): 22.0 mg/plant; Dry Matter Mass of Rice, Total (20 mg/L): 25.8 mg/plant; Leaf Area (20 mg/L): 3.16 cm^2; Leaf Length (20 mg/L): 11.08 cm; Leaf Width (20 mg/L): 0.34 cm; Plant Height (20 mg/L): 16.13 cm; Total Root Count (20 mg/L): 8.7 count/plant; Dry Matter Mass of Rice, Root System (50 mg/L): 3.0 mg/plant; Dry Matter Mass of Rice, Shoot Part (50 mg/L): 19.7 mg/plant; Dry Matter Mass of Rice, Total (50 mg/L): 22.7 mg/plant; Leaf Area (50 mg/L): 3.01 cm^2; Leaf Length (50 mg/L): 9.23 cm; Leaf Width (50 mg/L): 0.39 cm; Plant Height (50 mg/L): 14.15 cm; Total Root Count (50 mg/L): 9.3 count/plant; increase of leaf area (5-50 mg/L, average): 59.6%; increase of leaf length (5-50 mg/L, average): 33.9%; increase of leaf width (5-50 mg/L, average): 19.6%; increase of rice plant height (5-50 mg/L, average): 31.5%; increase of total root count (5-50 mg/L, average): 47.8%
